Converted amounts (≈) assume the structure as drawn.
Test system: S. aureus
Test: Antimicrobial Susceptibility Test by Broth Microdilution, M07-A9 CLSI
Type: cell-based
Details: Staphylococcus aureus

CCCCCCCCCC1CC(O)=C(C(=O)CCC)C(=O)O1 (stereo not shown) [Ex. 1, 3-Butyryl-6-nonyl-4-hydroxy-5,6-dihydro-2H-pyran-2-one] was tested, and the MIC (ATCC29213, S. aureus ATCC29213, QC strain, Table 5) was 4 µg/mL (≈ 12.9 µM), the MIC (ATCC29213, S. aureus ATCC 29213, QC strain, Table 6) was 4 µg/mL (≈ 12.9 µM) and the MIC (MRSA, S. aureus PICI, Table 6) was 4 µg/mL (≈ 12.9 µM). For the same compound, the MIC (MSSA, S. aureus MO 17, MSSA, Table 6) was 2 µg/mL (≈ 6.44 µM), the MIC (S. aureus 6 Holland, Macrolide-resistant (M)) was 1 µg/mL (≈ 3.22 µM) and the MIC (S. aureus 56 Japan, Macrolide-resistant (MLSi)) was 4 µg/mL (≈ 12.9 µM). The MIC (S. aureus 853E, Macrolide-sensitive) was 2 µg/mL (≈ 6.44 µM), the MIC (S. aureus 4216, Tetracycline-resistant) was 2 µg/mL (≈ 6.44 µM) and the MIC (S. aureus 4384 (SSI), Methicillin-resistant) was 2 µg/mL (≈ 6.44 µM). The MIC (S. aureus FR 131, Quinolone-resistant) was 2 µg/mL (≈ 6.44 µM), the MIC (S. aureus MO17, Methicillin-sensitive, Table 5) was 2 µg/mL (≈ 6.44 µM) and the MIC (S. aureus PICI, Methicillin-resistant, Table 5) was 4 µg/mL (≈ 12.9 µM). It also gave an MIC (S. aureus PK2, Macrolide-resistant (MLSc)) of 2 µg/mL (≈ 6.44 µM).

Reference: patent publication US10471043B2, “Compounds and methods of treating bacterial infections” (ULTUPHARMA AB, priority 2015, dated 2019)
